# Where a SMILES comes first, the peptide text is derived from it. The star is where a group is joined. X1 = O=C(O)c1ccc2c(c1)nc(OCCCCCCCCC(=O)*)c1ccncc12
# Key:
# [1] = biological target: Protein-tyrosine kinase 6 (Homo sapiens) (UniProt Q13882); test: Inhibition of human BRK assessed as residual activity at 1 uM in presence of 33P-ATP by filter-binding assay relative to control
# Homo sapiens = organism: Homo sapiens; test: Inhibition of human VEGFR assessed as residual activity at 1 uM in presence of 33P-ATP by filter-binding assay relative to control
# [2] = biological target: Ribosomal protein S6 kinase alpha-3 (Homo sapiens) (UniProt P51812); test: Inhibition of human RSK2 assessed as residual activity at 1 uM in presence of 33P-ATP by filter-binding assay relative to control
# [3] = biological target: Tyrosine-protein kinase BTK (Homo sapiens) (UniProt Q06187); test: Inhibition of human BTK assessed as residual activity at 1 uM in presence of 33P-ATP by filter-binding assay relative to control
# [4] = biological target: Mitogen-activated protein kinase kinase kinase kinase 5 (Homo sapiens) (UniProt Q9Y4K4); test: Inhibition of human MAP4K5 assessed as residual activity at 1 uM in presence of [33P]ATP by filter binding assay relative to control
# [5] = biological target: Angiopoietin-1 receptor (Homo sapiens) (UniProt Q02763); test: Inhibition of human TIE2 assessed as residual activity at 1 uM in presence of 33P-ATP by filter-binding assay relative to control
# [6] = biological target: CDK2/Cyclin A2 (Homo sapiens) (UniProt P24941+P20248); test: Inhibition of human CDK2/Cyclin A assessed as residual activity at 1 uM in presence of [33P]ATP by filter binding assay relative to control; format: protein-complex assay
# [7] = biological target: MAP kinase-activated protein kinase 2 (Homo sapiens) (UniProt P49137); test: Inhibition of human MAPKAP-K2 assessed as residual activity at 1 uM in presence of [33P]ATP by filter binding assay relative to control
# [8] = biological target: Serine/threonine-protein kinase PAK 4 (Homo sapiens) (UniProt O96013); test: Inhibition of human PAK4 assessed as residual activity at 1 uM in presence of [33P]ATP by filter binding assay relative to control
# [9] = biological target: Mitogen-activated protein kinase kinase kinase 1 (Homo sapiens) (UniProt Q13233); test: Inhibition of human MEKK1 assessed as residual activity at 1 uM in presence of [33P]ATP by filter binding assay relative to control
# [10] = biological target: Inhibitor of nuclear factor kappa-B kinase subunit beta (Homo sapiens) (UniProt O14920); test: Inhibition of human IKKb assessed as residual activity at 1 uM in presence of [33P]ATP by filter binding assay relative to control
# [11] = biological target: Serine/threonine-protein kinase 24 (Homo sapiens) (UniProt Q9Y6E0); test: Inhibition of human MST3 assessed as residual activity at 1 uM in presence of [33P]ATP by filter binding assay relative to control
# [12] = biological target: Mitogen-activated protein kinase 1 (Homo sapiens) (UniProt P28482); test: Inhibition of human ERK2 assessed as residual activity at 1 uM in presence of [33P]ATP by filter binding assay relative to control
# [13] = biological target: High affinity nerve growth factor receptor (Homo sapiens) (UniProt P04629); test: Inhibition of human TrkA assessed as residual activity at 1 uM in presence of [33P]ATP by filter binding assay relative to control
# [14] = biological target: Inhibitor of nuclear factor kappa-B kinase subunit epsilon (Homo sapiens) (UniProt Q14164); test: Inhibition of human IKKe assessed as residual activity at 1 uM in presence of 33P-ATP by filter-binding assay relative to control
# [15] = biological target: Ribosomal protein S6 kinase alpha-5 (Homo sapiens) (UniProt O75582); test: Inhibition of human MSK1 assessed as residual activity at 1 uM in presence of 33P-ATP by filter-binding assay relative to control
# [16] = biological target: Ribosomal protein S6 kinase beta-1 (Homo sapiens) (UniProt P23443); test: Inhibition of human S6K1 assessed as residual activity at 1 uM in presence of 33P-ATP by filter-binding assay relative to control
# [17] = biological target: Mitogen-activated protein kinase 10 (Homo sapiens) (UniProt P53779); test: Inhibition of human JNK3 assessed as residual activity at 1 uM in presence of [33P]ATP by filter binding assay relative to control
# [18] = biological target: Serine/threonine-protein kinase BRSK2 (Homo sapiens) (UniProt Q8IWQ3); test: Inhibition of human BRSK2 assessed as residual activity at 1 uM in presence of [33P]ATP by filter binding assay relative to control
# [19] = biological target: Tyrosine-protein kinase JAK2 (Homo sapiens) (UniProt O60674); test: Inhibition of human JAK2 assessed as residual activity at 1 uM in presence of [33P]ATP by filter binding assay relative to control
# [20] = biological target: Protein kinase C alpha type (Homo sapiens) (UniProt P17252); test: Inhibition of human PKCa assessed as residual activity at 1 uM in presence of [33P]ATP by filter binding assay relative to control
# [21] = biological target: Tyrosine-protein kinase CSK (Homo sapiens) (UniProt P41240); test: Inhibition of human CSK assessed as residual activity at 1 uM in presence of [33P]ATP by filter binding assay relative to control
# [22] = biological target: Casein kinase II subunit alpha (Homo sapiens, UniProt P68400); test: Inhibition of ARC-1504 binding to CK2alpha (unknown origin) (1 to 335 residues) measured after 15 mins by fluorescence anisotropic method
# [23] = biological target: Casein kinase I isoform gamma-2 (Homo sapiens) (UniProt P78368); test: Inhibition of human CK1gamma2 assessed as residual activity at 1 uM in presence of [33P]ATP by filter binding assay relative to control
# [24] = biological target: Serine/threonine-protein kinase Chk2 (Homo sapiens) (UniProt O96017); test: Inhibition of human CHK2 assessed as residual activity at 1 uM in presence of [33P]ATP by filter binding assay relative to control
# [25] = biological target: Mitogen-activated protein kinase 12 (Homo sapiens) (UniProt P53778); test: Inhibition of human P38g MAPK assessed as residual activity at 1 uM in presence of [33P]ATP by filter binding assay relative to control
# [26] = biological target: Casein kinase I isoform delta (Homo sapiens) (UniProt P48730); test: Inhibition of human CK1delta assessed as residual activity at 1 uM in presence of [33P]ATP by filter binding assay relative to control
# [27] = biological target: MAP kinase-activated protein kinase 5 (Homo sapiens) (UniProt Q8IW41); test: Inhibition of human PRAK assessed as residual activity at 1 uM in presence of [33P]ATP by filter binding assay relative to control
# [28] = biological target: Insulin-like growth factor 1 receptor (Homo sapiens) (UniProt P08069); test: Inhibition of human IGF-1R assessed as residual activity at 1 uM in presence of [33P]ATP by filter binding assay relative to control
# Insulin-like growth factor 1 receptor (Homo sapiens), sequence (P08069 31-736 limits assumed): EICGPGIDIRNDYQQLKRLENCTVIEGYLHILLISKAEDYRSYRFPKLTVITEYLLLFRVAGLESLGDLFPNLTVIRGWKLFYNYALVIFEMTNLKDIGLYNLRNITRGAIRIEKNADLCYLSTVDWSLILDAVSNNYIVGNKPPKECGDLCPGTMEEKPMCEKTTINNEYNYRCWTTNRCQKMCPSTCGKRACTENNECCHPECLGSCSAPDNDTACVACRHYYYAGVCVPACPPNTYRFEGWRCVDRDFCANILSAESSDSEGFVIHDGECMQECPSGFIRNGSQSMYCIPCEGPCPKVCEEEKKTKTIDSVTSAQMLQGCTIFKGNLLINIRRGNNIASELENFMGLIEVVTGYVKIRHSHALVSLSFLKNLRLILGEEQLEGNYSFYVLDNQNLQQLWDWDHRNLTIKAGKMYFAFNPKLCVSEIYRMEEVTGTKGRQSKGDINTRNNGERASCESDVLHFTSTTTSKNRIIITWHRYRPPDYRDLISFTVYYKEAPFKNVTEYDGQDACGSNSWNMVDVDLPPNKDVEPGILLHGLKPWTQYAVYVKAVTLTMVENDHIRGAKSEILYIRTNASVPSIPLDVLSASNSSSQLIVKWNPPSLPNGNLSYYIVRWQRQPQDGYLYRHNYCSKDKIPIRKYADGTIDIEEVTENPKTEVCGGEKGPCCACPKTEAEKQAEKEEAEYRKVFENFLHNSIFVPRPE
# Insulin-like growth factor 1 receptor (Homo sapiens), sequence (P08069 741-1367 limits assumed): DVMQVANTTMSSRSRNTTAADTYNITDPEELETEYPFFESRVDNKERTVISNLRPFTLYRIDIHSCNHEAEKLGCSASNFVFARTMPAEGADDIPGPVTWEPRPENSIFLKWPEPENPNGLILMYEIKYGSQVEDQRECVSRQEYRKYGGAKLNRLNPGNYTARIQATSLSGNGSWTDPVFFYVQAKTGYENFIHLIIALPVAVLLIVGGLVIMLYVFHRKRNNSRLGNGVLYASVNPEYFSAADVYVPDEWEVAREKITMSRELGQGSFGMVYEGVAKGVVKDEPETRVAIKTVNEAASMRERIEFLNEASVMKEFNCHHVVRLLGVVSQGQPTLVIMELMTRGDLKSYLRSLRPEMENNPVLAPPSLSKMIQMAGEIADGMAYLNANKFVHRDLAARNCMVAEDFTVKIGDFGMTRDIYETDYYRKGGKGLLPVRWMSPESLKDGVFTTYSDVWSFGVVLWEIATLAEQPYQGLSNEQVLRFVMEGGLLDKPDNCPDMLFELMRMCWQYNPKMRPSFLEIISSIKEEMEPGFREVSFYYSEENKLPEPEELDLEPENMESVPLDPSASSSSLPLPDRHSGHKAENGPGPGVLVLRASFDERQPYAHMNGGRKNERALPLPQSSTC
# Casein kinase II subunit alpha, sequence (P68400 whole entry, the tested form may be a part, canonical isoform): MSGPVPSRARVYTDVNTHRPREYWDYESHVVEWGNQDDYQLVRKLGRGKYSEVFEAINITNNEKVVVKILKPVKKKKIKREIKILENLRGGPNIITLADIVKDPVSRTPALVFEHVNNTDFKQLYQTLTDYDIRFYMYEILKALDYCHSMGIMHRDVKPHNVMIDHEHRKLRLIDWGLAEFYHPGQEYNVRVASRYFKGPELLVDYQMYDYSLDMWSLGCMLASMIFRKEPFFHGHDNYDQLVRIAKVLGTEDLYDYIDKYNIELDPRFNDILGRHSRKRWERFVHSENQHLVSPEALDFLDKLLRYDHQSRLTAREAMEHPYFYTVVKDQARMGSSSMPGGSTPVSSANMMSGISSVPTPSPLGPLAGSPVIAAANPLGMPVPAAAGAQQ
# Ribosomal protein S6 kinase alpha-5 (Homo sapiens), sequence (O75582 whole entry, looked up): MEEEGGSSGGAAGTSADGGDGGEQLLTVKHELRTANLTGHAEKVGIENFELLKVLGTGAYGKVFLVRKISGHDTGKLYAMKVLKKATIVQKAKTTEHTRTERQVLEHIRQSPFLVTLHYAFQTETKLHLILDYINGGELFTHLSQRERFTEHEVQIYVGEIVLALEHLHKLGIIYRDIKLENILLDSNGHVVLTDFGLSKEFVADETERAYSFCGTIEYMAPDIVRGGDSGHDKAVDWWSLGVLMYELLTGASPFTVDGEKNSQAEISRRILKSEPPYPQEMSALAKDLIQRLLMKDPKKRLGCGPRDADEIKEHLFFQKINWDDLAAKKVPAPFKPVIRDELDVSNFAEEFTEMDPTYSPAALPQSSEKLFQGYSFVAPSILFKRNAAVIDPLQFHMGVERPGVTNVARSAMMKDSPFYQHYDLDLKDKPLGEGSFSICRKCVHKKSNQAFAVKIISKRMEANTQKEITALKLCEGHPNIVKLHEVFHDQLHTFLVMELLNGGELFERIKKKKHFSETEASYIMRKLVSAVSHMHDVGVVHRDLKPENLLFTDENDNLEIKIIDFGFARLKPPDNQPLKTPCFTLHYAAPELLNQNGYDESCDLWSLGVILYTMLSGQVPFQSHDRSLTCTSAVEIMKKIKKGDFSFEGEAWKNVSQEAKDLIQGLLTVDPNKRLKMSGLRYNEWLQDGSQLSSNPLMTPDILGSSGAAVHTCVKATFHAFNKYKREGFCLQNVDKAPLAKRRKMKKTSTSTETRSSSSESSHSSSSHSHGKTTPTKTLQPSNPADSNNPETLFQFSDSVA
# Tyrosine-protein kinase BTK (Homo sapiens), sequence (Q06187 whole entry): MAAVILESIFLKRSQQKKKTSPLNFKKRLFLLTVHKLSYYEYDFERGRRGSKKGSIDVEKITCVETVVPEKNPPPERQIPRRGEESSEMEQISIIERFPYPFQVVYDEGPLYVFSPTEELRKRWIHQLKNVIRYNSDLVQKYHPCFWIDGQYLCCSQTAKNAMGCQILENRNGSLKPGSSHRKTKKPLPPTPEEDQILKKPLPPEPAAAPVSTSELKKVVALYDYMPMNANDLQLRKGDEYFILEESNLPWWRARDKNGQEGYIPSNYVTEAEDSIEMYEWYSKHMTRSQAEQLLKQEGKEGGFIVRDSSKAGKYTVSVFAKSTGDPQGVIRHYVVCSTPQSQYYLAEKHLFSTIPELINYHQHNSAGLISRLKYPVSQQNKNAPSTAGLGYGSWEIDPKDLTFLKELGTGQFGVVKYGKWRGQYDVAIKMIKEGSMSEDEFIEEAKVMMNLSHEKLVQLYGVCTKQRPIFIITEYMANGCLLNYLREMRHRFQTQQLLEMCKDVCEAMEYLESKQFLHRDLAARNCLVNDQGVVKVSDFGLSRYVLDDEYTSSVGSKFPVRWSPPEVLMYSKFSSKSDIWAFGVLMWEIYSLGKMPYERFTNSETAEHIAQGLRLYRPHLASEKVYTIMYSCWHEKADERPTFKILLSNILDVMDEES
# Mitogen-activated protein kinase 1 (Homo sapiens), sequence (P28482 whole entry): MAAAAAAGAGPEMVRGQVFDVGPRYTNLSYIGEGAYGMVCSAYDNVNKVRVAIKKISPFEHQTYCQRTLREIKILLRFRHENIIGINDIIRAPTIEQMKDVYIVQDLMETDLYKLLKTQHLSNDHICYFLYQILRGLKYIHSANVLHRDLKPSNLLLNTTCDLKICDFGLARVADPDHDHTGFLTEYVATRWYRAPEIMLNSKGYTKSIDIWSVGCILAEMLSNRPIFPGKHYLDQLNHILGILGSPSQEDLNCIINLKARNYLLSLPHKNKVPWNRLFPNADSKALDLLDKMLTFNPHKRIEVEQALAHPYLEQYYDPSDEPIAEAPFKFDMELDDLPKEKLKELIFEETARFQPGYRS
# Serine/threonine-protein kinase Chk2 (Homo sapiens), sequence (O96017 whole entry): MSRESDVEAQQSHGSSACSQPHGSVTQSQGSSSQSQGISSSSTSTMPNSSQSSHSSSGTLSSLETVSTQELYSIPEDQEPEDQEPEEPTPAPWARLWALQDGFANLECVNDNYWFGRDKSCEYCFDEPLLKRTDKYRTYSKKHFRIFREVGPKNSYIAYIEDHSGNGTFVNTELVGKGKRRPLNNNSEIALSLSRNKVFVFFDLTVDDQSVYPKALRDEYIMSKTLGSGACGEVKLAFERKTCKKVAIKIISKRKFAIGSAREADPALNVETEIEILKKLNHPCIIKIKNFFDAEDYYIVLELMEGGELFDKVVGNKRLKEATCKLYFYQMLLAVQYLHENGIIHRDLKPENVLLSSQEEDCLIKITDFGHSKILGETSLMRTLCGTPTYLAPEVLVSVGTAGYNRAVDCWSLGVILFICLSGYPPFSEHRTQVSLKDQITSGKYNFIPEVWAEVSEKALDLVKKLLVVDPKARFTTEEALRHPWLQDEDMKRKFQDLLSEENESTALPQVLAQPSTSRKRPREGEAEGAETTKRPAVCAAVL
# MAP kinase-activated protein kinase 2 (Homo sapiens), sequence (P49137 whole entry, looked up): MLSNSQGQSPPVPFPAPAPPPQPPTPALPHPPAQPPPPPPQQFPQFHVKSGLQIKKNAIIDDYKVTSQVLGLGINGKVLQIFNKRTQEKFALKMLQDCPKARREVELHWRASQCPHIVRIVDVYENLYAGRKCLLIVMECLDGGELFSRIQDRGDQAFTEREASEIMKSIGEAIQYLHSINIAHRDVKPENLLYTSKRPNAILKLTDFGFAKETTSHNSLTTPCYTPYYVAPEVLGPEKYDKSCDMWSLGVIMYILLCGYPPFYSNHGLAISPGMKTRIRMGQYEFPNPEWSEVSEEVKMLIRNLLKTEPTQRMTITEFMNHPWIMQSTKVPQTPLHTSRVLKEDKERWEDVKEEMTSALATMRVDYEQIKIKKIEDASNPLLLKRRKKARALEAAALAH
# Protein-tyrosine kinase 6 (Homo sapiens), sequence (Q13882 whole entry, looked up): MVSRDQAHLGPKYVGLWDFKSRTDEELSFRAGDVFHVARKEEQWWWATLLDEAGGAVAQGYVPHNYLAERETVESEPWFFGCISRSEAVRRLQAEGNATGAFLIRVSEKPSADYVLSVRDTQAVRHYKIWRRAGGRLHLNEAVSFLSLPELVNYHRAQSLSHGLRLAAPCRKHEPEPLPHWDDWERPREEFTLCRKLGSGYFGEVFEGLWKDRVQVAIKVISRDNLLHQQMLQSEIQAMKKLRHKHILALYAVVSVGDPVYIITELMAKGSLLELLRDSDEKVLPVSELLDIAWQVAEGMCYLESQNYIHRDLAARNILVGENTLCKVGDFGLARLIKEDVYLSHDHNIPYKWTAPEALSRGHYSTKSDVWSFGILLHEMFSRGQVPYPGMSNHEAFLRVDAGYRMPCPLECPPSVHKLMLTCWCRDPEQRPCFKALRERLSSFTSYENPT
smiles,measurement,setting,value
NCCCC[C@H](NC(=O)[C@H](CC(=O)O)NC(=O)[C@H](CC(=O)O)NC(=O)[C@H](CC(=O)O)NC(=O)[C@H](CC(=O)O)NC(=O)[C@H](CC(=O)O)NC(=O)[C@H](CC(=O)O)NC(=O)CCCCCCCCOc1nc2cc(C(=O)O)ccc2c2cnccc12)C(=O)O (X1-DDDDDDK-OH),Activity,[1],51%
same,Activity,Homo sapiens,63%
same,Activity,[2],62%
same,Activity,[3],62%
same,Activity,[4],87%
same,Activity,[5],41%
same,Activity,[6],82%
same,Activity,[7],100%
same,Activity,[8],107%
same,Activity,[9],106%
same,Activity,[10],81%
same,Activity,[11],93%
same,Activity,[12],90%
same,Activity,[13],85%
same,Activity,[14],13%
same,Activity,[15],58%
same,Activity,[16],31%
same,Activity,[17],94%
same,Activity,[18],91%
same,Activity,[19],72%
same,Activity,[20],93%
same,Activity,[21],77%
same,Kd,[22]; read-out: Kd,0.037 nM
same,Kd,[22]; read-out: pKd (converted),0.0316 nM
same,Activity,[23],86%
same,Activity,[24],92%
same,Activity,[25],107%
same,Activity,[26],82%
same,Activity,[27],92%
same,Activity,[28],79%
